Where a name gives a salt, the structure may show the parent alone. Residues, ends and D or L forms follow the SMILES beside them. No end group written: not given here.
Columns and labels:
[1] = test system: CCl4 induced liver fibrosis in mice; assay: CCl4 induced liver fibrosis in mice (collagen accumulation in the liver); type: in vivo; conditions: for collagen accumulation in the liver (marker of matrix accumulation): mice, CCl4 for 6 weeks, peptide 25 mg/kg/mouse/day intraperitoneal in NaCl 0.9% from day 32 for 10 days, vs CCl4-treated mice, FIG. 1 and 2
Method: FIG. 1 Prevention of fibrosis progression by proline-containing cyclic and amidated linear peptides. Mice were injected for 6 weeks with CCl4 in order to induce liver fibrosis. Starting on day 32 the mice received daily intraperitoneal injections of 25 mg/kg/mouse/day of the peptides in 0.9% NaCl for a total of 10 days. CCl4-treated mice also received NaCl 0.9%. The healthy control group (CT) only received 0.9% NaCl. N=4/10/[…]/8/11/7 in two experiments. The following peptides were tested on CCl4-treated mice: cyclic Pro-Gly-Leu-Gln-Gly-Glu (Cyclic PGLQGE; SEQ ID NO: 6), and compared to two controls: cyclic Pro-Gly-Leu-Asn-Gly-Glu (Cyclic CT1+P: cyclic PGLNGE; SEQ ID NO: 11) and cyclic Pro-Gly-Leu-Hyp-Gly-Glu (Cyclic CT2+P: cyclic PGLOGE; SEQ ID NO: 16). Linear Gly-Leu-Gln-Gly-Glu-NH2 (Linear GLQGE-NH2; SEQ ID NO: 4) was also tested and compared to two controls: linear Gly-Leu-Asn-Gly-Glu-NH2 (Linear CT1—NH2: linear GLNGE-NH2; SEQ ID NO: 9) and linear Gly-Leu-Hyp-Gly-Glu-NH2 (Linear CT2—NH2: linear GLOGE-NH2; SEQ ID NO: 14). * p<0.05. Evaluated by t-test. Data presented as mean+SEM.
FIG. 2 Prevention of fibrosis progression by cyclic peptides and acetylated linear peptides. Mice were injected for 6 weeks with CCl4 in order to induce liver fibrosis. Starting on day 32 the mice received daily intraperitoneal injections of 25 mg/kg/mouse/day of the peptides in 0.9% NaCl for a total of 10 days. CCl4-treated mice also received NaCl 0.9%. The healthy control group (CT) only received 0.9% NaCl. N=5/18/9/9/6/5/4/4 in two experiments. The following peptides were tested on CCl4-treated mice: cyclic Gly-Leu-Gln-Gly-Glu (Cyclic GLQGE; SEQ ID NO: 5), and compared to two controls: cyclic Gly-Leu-Asn-Gly-Glu (Cyclic CT1: cyclic GLNGE; SEQ ID NO: 10) and cyclic Gly-Leu-Hyp-Gly-Glu (Cyclic CT2: cyclic GLOGE; SEQ ID NO: 15). Linear Ac-Gly-Leu-Gln-Gly-Glu (Linear Ac-GLQGE; SEQ ID NO: 3) was also tested and compared to two controls: linear Ac-Gly-Leu-Asn-Gly-Glu (Linear Ac-CT1: linear Ac-GLNGE; SEQ ID NO: 8) and linear Ac-Gly-Leu-Hyp-Gly-Glu (Linear Ac-CT2: linear Ac-GLOGE; SEQ ID NO: 13). * p<0.05, ** p<0.005. Evaluated by t-test. Data presented as mean+SEM.
Mice were injected for 6 weeks with CCl4 in order to induce liver fibrosis. Starting on day 32 the mice received daily intraperitoneal injections of the peptides at a final dose of 25 mg/kg/mouse/day diluted in NaCl 0.9% for a total of 10 days. In these experiments, the following peptides were tested: cyclic peptide Pro-Gly-Leu-Gln-Gly-Glu (SEQ ID NO: 6), cyclic peptide Pro-Gly-Leu-Asn-Gly-Glu (SEQ ID NO: 11), cyclic peptide Pro-Gly-Leu-Hyp-Gly-Glu (SEQ ID NO: 16), linear peptide Gly-Leu-Gln-Gly-Glu-NH2 (SEQ ID NO: 4), linear peptide Gly-Leu-Asn-Gly-Glu-NH2 (SEQ ID NO: 9), linear peptide Gly-Leu-Hyp-Gly-Glu-NH2 (SEQ ID NO: 14).
Mice were injected for 6 weeks with CCl4 in order to induce liver fibrosis. Starting on day 32 the mice received daily intraperitoneal injections of the peptides at a final dose of 25 mg/kg/mouse/day diluted in NaCl 0.9% for a total of 10 days. In these experiments, the following peptides were tested: cyclic peptide Gly-Leu-Gln-Gly-Glu (SEQ ID NO: 5), cyclic peptide Gly-Leu-Asn-Gly-Glu (SEQ ID NO: 10), cyclic peptide Gly-Leu-Hyp-Gly-Glu (SEQ ID NO: 15), linear peptide Ac-Gly-Leu-Gln-Gly-Glu (SEQ ID NO: 3), linear peptide Ac-Gly-Leu-Asn-Gly-Glu (SEQ ID NO: 8), linear peptide Ac-Gly-Leu-Hyp-Gly-Glu (SEQ ID NO: 13).

[2] = test system: B16 melanoma cancer cells; assay: B16 melanoma model in mice (tumor weight); type: in vivo; conditions: B16 melanoma cells (10^6) s.c. in mice; 1 mg peptide s.c. on day 7; tumours weighed on day 12
Method: FIG. 3 Prevention of cancer growth by cyclic GLQGE (SEQ ID NO: 5) in form of hydrochloride salt (cyclic GLQGE HCl salt). B16 melanoma cancer cells were injected subcutaneously in mice. On day 7, injection with 1 mg of the peptide or 0.9% NaCl subcutaneously was performed. On day 12 mice were euthanized and tumors removed and weighed. N=11/11 mice. Data presented as mean+SEM.
The cyclic peptide Gly-Leu-Gln-Gly-Glu (cyclic GLQGE; SEQ ID NO: 5) in form of hydrochloride salt was tested for its ability in prevention of cancer growth in a melanoma model in mice. B16 melanoma cancer cells (10^6 cells) were injected subcutaneously in mice. On day 7, injection with 1 mg of the cyclic GLQGE peptide (SEQ ID NO: 5) or 0.9% NaCl (control mice) subcutaneously was performed. On day 12 mice were euthanized and tumours removed and weighed. N=11/11 mice. Results are shown on FIG. 3 as mean+SEM. […] Thus, the cyclic peptide Gly-Leu-Gin-Gly-Glu (SEQ ID NO: 5) represents a promising therapeutic drug for use in the treatment of cancer.

[3] = test system: breast cancer cell line MDA-MB-231; assay: breast cancer model in mice, MDA-MB-231 intratibial (bioluminescence imaging); type: in vivo; conditions: MDA-MB-231 intratibially in CD1 nude mice; 0.1 mg s.c. daily from day 30 for 10 days; read on day 40; vs 0.9% NaCl
Method: FIG. 5 Prevention of breast cancer growth by cyclic GLQGE (SEQ ID NO: 5) in form of hydrochloride salt (cyclic GLQGE HCl salt). Cells from the breast cancer cell line MDA-MB-231 were injected intratibially in mice. Starting on day 30, injection with 0.1 mg/mouse/day of the cyclic peptide Gly-Leu-Gln-Gly-Glu (SEQ ID NO: 5) (cyclic GLQGE HCl salt) for 10 days or 0.9% NaCl subcutaneously was performed. On day 40, the size of the tumour was evaluated by bioluminescence imaging (Bioluminescence imaging was performed by detecting photon signal 5 minutes after D-luciferin injection (150 mg/kg) using an “IVIS Lumina II” imaging system. The resulting images were analysed using the software “Living Image”). RLU=relative light units. The number of animals in each group was N=14/7 mice, in two experiments. * p<0.05 as evaluated by t-test. Data are presented as mean+SEM.
The hydrochloride salt of cyclic peptide Gly-Leu-Gln-Gly-Glu (cyclic GLQGE; SEQ ID NO: 5) was tested for its ability in prevention of breast cancer in mice. […] On day 40, the size of the tumor was evaluated by bioluminescence imaging (Bioluminescence imaging was performed by detecting photon signal 5 minutes after D-luciferin injection (150 mg/kg) using an “IVIS Lumina II” imaging system. The resulting images were analyzed using the software “Living Image”). […]

[4] = test system: bleomycin induced lung fibrosis in C57bl/6 mice; assay: bleomycin induced lung fibrosis in mice (total collagen in the lung); type: in vivo; conditions: intratracheal bleomycin on day 0; 1 mg/mouse/day s.c. from day 11 for 10 days; vs bleomycin alone (p<0.05) or with control peptides
Method: FIG. 4 Prevention of fibrosis progression by the cyclic peptide Gly-Leu-Gln-Gly-Glu (SEQ ID NO: 5) (acetate salt). Lung fibrosis was induced in 6-week-old male C57bl/6 mice using intratracheal bleomycin instillation at a dose of 0.005 units in 50 μl on day 0. Starting on day 11, cyclic Gly-Leu-Gln-Gly-Glu (cyclic GLQGE; SEQ ID NO: 5) was injected subcutaneously at a dose of 1 mg/mouse/day in 0.9% NaCl for a total of 10 days. The control group only received daily injections of 0.9% NaCl. The number of animals in the four groups was N=14/10/10/9 in three experiments. The cyclic peptide Gly-Leu-Gln-Gly-Glu (Cyclic GLQGE; SEQ ID NO: 5) (acetate salt) was tested and compared to cyclic Ac-Gly-Leu-Asn-Gly-Glu (Cyclic GLNGE; SEQ ID NO: 10) (acetate salt) and to cyclic Ac-Gly-Leu-Hyp-Gly-Glu (Cyclic GLOGE; SEQ ID NO: 15) (acetate salt), *p<0.05. Evaluated by t-test. Data are presented as mean ±SEM.
The cyclic peptide Gly-Leu-Gln-Gly-Glu (cyclic GLQGE (SEQ ID NO: 5) acetate salt) was tested for its ability in prevention of lung fibrosis in mice. Lung fibrosis was induced in 6-week-old male C57bl/6 mice using intratracheal bleomycin instillation at a dose of 0.005 units in 50 μl 0.9% NaCl on day 0. […]

[5] = test system: TGFβ expression in murine hepatocytes; assay: unstimulated TGFβ expression in murine hepatocytes; type: cell-based; conditions: data not shown

Molecule	collagen accumulation in the liver (marker of matrix accumulation) [1]	unstimulated TGFβ expression [5]	also measured
CC(C)C[C@@H]1NC(=O)CNC(=O)[C@H](CCC(=O)O)NC(=O)CNC(=O)[C@@H]2C[C@@H](O)CN2C1=O [SEQ ID NO: 15, Gly-Leu-Hyp-Gly-Glu, reference compound] (HELM PEPTIDE1{E.G.L.[Hyp].G}$PEPTIDE1,PEPTIDE1,1:R1-5:R2$$$V2.0)	failed to inhibit collagen accumulation	–	–
Ac-GLQGE [SEQ ID NO: 3, Ac-Gly-Leu-Gln-Gly-Glu]	able to significantly reduce CCl4-induced collagen accumulation	–	–
CC(C)C[C@@H]1NC(=O)CNC(=O)[C@H](CCC(=O)O)NC(=O)CNC(=O)[C@H](CCC(N)=O)NC1=O [SEQ ID NO: 5 (HCl salt), Gly-Leu-Gln-Gly-Glu] (HELM PEPTIDE1{E.G.L.Q.G}$PEPTIDE1,PEPTIDE1,1:R1-5:R2$$$V2.0)	–	–	diminution of cancer size (tumor weight) as compared to control mice [2]: approximately 72%; size of the tumor by bioluminescence imaging [3]: significantly (p<0.05) diminished
CC(C)C[C@@H]1NC(=O)CNC(=O)[C@H](CCC(=O)O)NC(=O)CNC(=O)[C@H](CCC(N)=O)NC1=O [SEQ ID NO: 5 (acetate salt), Gly-Leu-Gln-Gly-Glu] (HELM PEPTIDE1{E.G.L.Q.G}$PEPTIDE1,PEPTIDE1,1:R1-5:R2$$$V2.0)	–	–	total amount of collagen in the lung [4]: significantly diminished
Gly-Leu-Gln-Gly-Glu (GLQGE; SITE 1..5 peptide bond between the amino-terminus and the carboxyl-terminus; listed as Homo sapiens) [SEQ ID NO: 5]	able to significantly reduce collagen accumulation	–	efficiency in reducing collagen accumulation in comparison to the cyclic peptide with proline Pro-Gly-Leu-Gln-Gly-Glu (SEQ ID NO: 6) ([1]; CCl4 liver fibrosis in mice, comparison of Y-axis values of FIGS. 1 and 2, p<0.001): more efficient in reducing collagen accumulation; inhibitory effect on collagen accumulation compared to linear Gly-Leu-Gln-Gly-Glu-NH2 (SEQ ID NO: 4) or Ac-Gly-Leu-Gln-Gly-Glu (SEQ ID NO: 3) ([1]; chemically induced chronic liver damage in mice): larger inhibitory effect
CC(C)C[C@@H]1NC(=O)CNC(=O)[C@H](CCC(=O)O)NC(=O)CNC(=O)[C@H](CC(N)=O)NC1=O [SEQ ID NO: 10, Gly-Leu-Asn-Gly-Glu, reference compound] (HELM PEPTIDE1{E.G.L.N.G}$PEPTIDE1,PEPTIDE1,1:R1-5:R2$$$V2.0)	failed to inhibit collagen accumulation	–	–
CC(C)C[C@H](NC(=O)CN)C(=O)N1C[C@@H](O)C[C@H]1C(=O)NCC(=O)N[C@@H](CCC(=O)O)C(N)=O [SEQ ID NO: 14, Gly-Leu-Hyp-Gly-Glu-NH2]	–	had no effect	–
GLNGE-NH2 [SEQ ID NO: 9, Gly-Leu-Asn-Gly-Glu-NH2]	–	had no effect	–
GLQGE-NH2 [SEQ ID NO: 4, Gly-Leu-Gln-Gly-Glu-NH2]	able to significantly reduce CCl4-induced collagen accumulation	efficiently inhibits	–
PGLQGE [SEQ ID NO: 6]	able to significantly reduce collagen accumulation	–	–

Reference: patent US12454551B2, “Peptides as inhibitors of fibrotic matrix accumulation” (Max-Planck-Gesellschaft zur Förderung der Wissenschaften …, priority 2019, dated 2025)
